Assay results taken from patent US20250041298A1, “CDK4 INHIBITOR FOR THE TREATMENT OF CANCER” (Pfizer Inc., priority 2021, published 2025).

Assays:
[1] = system: AR+ prostate carcinoma cell line (LNCaP) prostate cancer spheroids; assay: Multicellular tumor spheroid growth inhibition (SGI), LNCaP; format: cell-based, human
Protocol: The purpose of this example was to evaluate the combination effect of PF-07220060 and endocrine therapy in multicellular tumor spheroid growth inhibition (SGI). To model the characteristics and cellular behavior of human tumors, the activity of PF-07220060 was evaluated in three dimensional MCTS models of HR+ breast cancer and AR+ prostate cancer following PF-07220060 treatment as a single agent and in combination with fulvestrant • 1) in HR+, HER2-T47D breast cancer spheroids. • 2) in HR+, HER2+BT474 breast cancer spheroids, • 3) in BT474 spheroids, and • 4) in AR+ prostate carcinoma cell line (LNCaP) prostate cancer spheroids. Spheroids were treated with increasing concentrations of 100, 300, or 1000 nM PF-07220060 and compared to palbociclib at the clinically relevant concentration of 30 nM.

[2] = system: advanced or metastatic solid tumors; assay: Phase 1/1b clinical trial: tumor response (best overall response, RECIST 1.1); format: in vivo, human
From the text: The present therapy may result in a complete response (CR), partial response (PR), progressive disease (PD), or stable disease (SD) in patients. Bioimaging can be used to evaluate the level of response to the therapy. Cytology and histology may also be used as needed (e.g., to locate any residual lesions). In some embodiments, the various levels of response can be evaluated in accordance with Table 1 below.
• For Part 1: participant must have evaluable lesion (including skin or bone lesion only). • For Part 2B and Part 2C: participants must have measurable disease as defined per RECIST (Response Evaluation Criteria in Solid Tumors) version 1.1 (Eisenhauer et al., European Journal of Cancer, 2009, 45 (2): 228-47). Tumor lesions previously irradiated or subjected to locoregional therapy will only be deemed measurable if progression at the treated site after completion of therapy is clearly documented.

[3] = Part 1D food effect cohort (n = 6)
[4] = Total, all cohorts (27 patients)
[5] = Total, all cohorts (35 patients)
[6] = confirmed best overall response, Part 1D food effect cohort (n = 6)
[7] = confirmed best overall response, Total Part 1A (single agent), 1B, 1C, 1B + 1C, by label
[8] = confirmed best overall response, Total, all cohorts (n = 70)

Q: `CC(C)n1c(C(C)(C)O)nc2c(F)cc(-c3nc(N[C@@H]4CCOC[C@H]4O)ncc3Cl)cc21` [PF-07220060, 1,5-anhydro-3-({5-chloro-4-[4-fluoro-2-(2-hydroxypropan-2-yl)-1-(propan-2-yl)-1H-benzimidazol-6-yl]pyrimidin-2-yl}amino)-2,3-dideoxy-D-threo-pentitol] was tested. Which SGI ([1]; 100 nM single agent) did it give?
A: 27%

Q: And the SGI ([1]; 300 nM single agent)?
A: 38; 38%

Q: What about the SGI ([1]; 1000 nM single agent) of the same compound?
A: 53%

Q: And the “Objective Response (CR + PR) for Patients without Breast Cancer, %” value ([2]; Part 1D food effect cohort (5 patients))?
A: (20.0) %

Q: What about the “Disease Control (CR + PR + SD + Non-CR/Non-PD), %” value [2, 3] of the same compound?
A: (50.0) %

Q: And the “Objective Response (CR + PR), %” value [2, 3]?
A: (16.7) %

Q: And the “Clinical Benefit Response, %” value ([2]; Patients with Breast Cancer (with Measurable Disease at Baseline), Total Part 1A (single agent), 1B, 1C, 1B + 1C, by label)?
A: (40.0) %

Q: And the “Clinical Benefit Response, %” value ([2]; Patients with Breast Cancer (with Measurable Disease at Baseline), Total, all cohorts (27 patients))?
A: (48.1) %

Q: What about the “Clinical Benefit Response, %” value ([2]; Patients with Breast Cancer, Total Part 1A (single agent), 1B, 1C, 1B + 1C, by label) of the same compound?
A: (25.0) %

Q: And the “Clinical Benefit Response, %” value ([2]; Patients with Breast Cancer, Total, all cohorts (35 patients))?
A: (40.0) %

Q: What about the “Objective Response (CR + PR) for Patients with Breast Cancer (with Measurable Disease at Baseline), %” value [2, 4] of the same compound?
A: (22.2) %

Q: And the “Objective Response (CR + PR) for Patients with prior CDK4/6 inhibitor (with Measurable Disease at Baseline), %” value [2, 4]?
A: (22.2) %

Q: And the “Objective Response (CR + PR) for Patients with Breast Cancer, %” value [2, 5]?
A: (17.1) %

Q: And the “Objective Response (CR + PR) for Patients without Breast Cancer, %” value [2, 5]?
A: (2.9) %

Q: And the “Disease Control (CR + PR + SD + Non-CR/Non-PD), %” value ([2]; Total, all cohorts (n = 70))?
A: (65.7) %

Q: What about the “Objective Response (CR + PR), %” value ([2]; Total, all cohorts (n = 70)) of the same compound?
A: (10.0) %

Q: And the “Disease Control (CR + PR + SD + Non-CR/Non-PD), %” value ([2]; Total, all cohorts (n = 70), listed as PF-06873600)?
A: 65.7%

Q: And the “Clinical Benefit Response, %” value ([2]; all evaluable patients, Part 1D food effect cohort (n = 6))?
A: (33.3) %

Q: And the “Clinical Benefit Response, %” value ([2]; all evaluable patients, Total Part 1A (single agent), 1B, 1C, 1B + 1C, by label)?
A: (26.3) %

Q: What about the “Clinical Benefit Response, %” value ([2]; all evaluable patients, Total, all cohorts (n = 70)) of the same compound?
A: (34.3) %

Q: And the “Non-CR/Non-PD, %” value [2, 6]?
A: (16.7) %

Q: What about the “Not evaluable (NE), %” value [2, 6] of the same compound?
A: (16.7) %

Q: What about the “Partial response (PR), %” value [2, 6] of the same compound?
A: (16.7) %

Q: And the “Progressive disease (PD), %” value [2, 6]?
A: (33.3) %

Q: And the “Stable disease (SD), %” value [2, 6]?
A: (16.7) %

Q: And the “Non-CR/Non-PD, %” value [2, 7]?
A: (10.5) %

Q: What about the “Not evaluable (NE), %” value [2, 7] of the same compound?
A: (23.7) %

Q: What about the “Progressive disease (PD), %” value [2, 7] of the same compound?
A: (15.8) %

Q: And the “Stable disease (SD), %” value [2, 7]?
A: (47.4) %

Q: And the “Complete response (CR), %” value [2, 8]?
A: (1.4) %

Q: What about the “Non-CR/Non-PD, %” value [2, 8] of the same compound?
A: (11.4) %

Q: What about the “Not evaluable (NE), %” value [2, 8] of the same compound?
A: (14.3) %

Q: What about the “Partial response (PR), %” value [2, 8] of the same compound?
A: (8.6) %

Q: And the “Progressive disease (PD), %” value [2, 8]?
A: (18.6) %

Q: What about the “Stable disease (SD), %” value [2, 8] of the same compound?
A: (44.3) %
